The subject of this assay is serum antibodies of test subjects Serum 1B-8B. As to conditions: sera S1B-S8B; streptavidin immobilized peptide.

On to “Biotin-aminocaproyl-SRPRVRNIP [Peptide 2B]”, for which the “binding of serum antibodies (immune response), absorbance at 450 nm” value was “especially effective in binding with certain antibodies”.

The values above are taken from patent publication US20100074920A1 (priority 2006, published 2010).
